The target of assay [1] is T1, TBNAT (Mycobacterium tuberculosis, UniProt P9WJI5).
T1 construct: made in house
Nature of the assay: NAT-inhibition assay (Ac-CoA hydrolysis with hydralazine, Ellman's reagent). It counts as biochemical, M. tuberculosis. The settings on record: 150 µM HLZ, 120 µM Ac-CoA, 24°C. The method, then: An assay for measuring the formation of CoA was used to determine the activity of the enzyme in the presence of potential inhibitors. All the tested compounds were dissolved in dimethylsulphoxide (DMSO) and all reactions were carried out in the presence of 5% (v/v) DMSO. The enzyme (100–150 ng) was mixed with the inhibitors 1–5 (5 µL at a final concentration of 0–250 µM) and incubated for 15 min at 24°C prior to starting the reaction by adding 15 µL hydralazine and 12 µL Ac-CoA at final concentrations of 150 µM and 120 µM respectively, in a final total volume of 100 µL of 20 mM Tris-HCl pH 8. The assay was performed as an end-point read out measurement by stopping the reaction after 10 min at 24°C using 25 µL Ellman's reagent (5 mM 5,5′-dithiobis-(2-nitrobenzoate) solution in 6.4 M guanidine-HCl and 100 mM Tris-HCl, pH 7.3). The absorbance was measured at a wavelength of 405 nm within 2 min (Tecan Sunrise Plate Reader). The assays were repeated using a 10-fold enzyme concentration to exclude promiscuous non-specific inhibitors. The activity of the enzyme in the presence of 5% (v/v) DMSO was measured as a control. Inhibition values were determined as the ratio of the enzyme activity (expressed as the rate of CoA formation per microgram protein (µM/min.µg)) with the requisite compound, to the activity of the control without inhibitor. IC50 values were determined from the inhibition curves which were obtained by non-linear fitting of the % inhibition and the inhibitor concentration (µM) using the Log(inhibitor) vs. response module of GraphPad Prism 5.0.
For orientation: Ellman's reagent forms a yellow product with free thiols.

Assay [2] addresses T2, MMNAT (Mycobacterium marinum, UniProt B2HIZ6). Nature of the assay: Reversibility of inhibition by dialysis. The following applies: 15-fold molar excess, 1 h at 24°C, dialysis 16 h at 4°C. It counts as biochemical, M. marinum. As to the method:
Figure 3 Reversibility of the inhibition of TBNAT and MMNAT by compound 1. Each enzyme (MMNAT, TBNAT, 0.07 mM, 50 µL) was preincubated either alone or with 15-fold molar excess 1 at 24°C for 1 h. Each sample was then dialysed against 1 L fresh assay buffer (20 mM Tris-HCl pH 8) at 4°C for 16 h. The enzyme activities of the samples were measured before dialysis and then measured after dialysis by measuring the rate of Ac-CoA hydrolysis in the presence of HLZ as described in Methods. The mean ± S.D. of three measurements of the activity is shown. Loss of enzyme activity upon dialysis is likely to be due to the oxidation of the active site sulfhydryl group, especially since dialysis was performed in the absence of dithiothreitol.
For the reversibility studies, excess inhibitor was […] by dialysis. Each enzyme (0.07 mM MMNAT or TBNAT in 20 mM Tris-HCl pH 8 and 5% (v/v) DMSO) was preincubated either alone or with 15-fold molar excess of compound 1 in a final volume of 50 µL at 24°C for 1 h. Each sample was then dialysed against 1 L fresh assay buffer (20 mM Tris-HCl pH 8) at 4°C for 16 h. The enzyme activities of the samples were measured before dialysis and then measured after dialysis by measuring the rate of Ac-CoA (120 µM) hydrolysis in the presence of 150 µM HLZ.

Assay [3] has as its target T2, MMNAT. Nature of the assay: Time-dependent inhibition assay (Kitz and Wilson model). The settings on record: inhibitor at 11.9 µM; 24°C. It counts as biochemical, M. marinum. As to the method:
The time course of the inhibition of NAT by the piperidinols was evaluated according to the Kitz and Wilson model. Irreversible inhibition, progressive with time, was measured for the piperidinol inhibitors (1–5) by the protocol described in Figure S2, and the values of the apparent first order constant (kobs) were determined (Table 1). Dilution rather than dialysis was used in this protocol due to the likely loss of activity upon dialysis (Figure 3). […] Examples of the curves obtained for enzyme activity against incubation time upon inhibition of MMNAT and TBNAT by the piperidinols are shown in Figure 4.
For the determination of the time dependence of interaction between enzymes and inhibitors, the inhibitor was diluted to less than 1% concentration. Incubation mixtures (20 µL) contained 0.06 mM MMNAT or TBNAT in 20 mM Tris-HCl, pH 8 and 5% (v/v) DMSO and variable concentrations of the inhibitors (0–50 µM) were prepared using the protocol described in Figure S1. Aliquots of 1 µL were removed from the reaction mixture at different time points (incubation-time) and diluted to 100 µL using the assay buffer containing HLZ and Ac-CoA to the final concentrations of 150 µM and 120 µM, respectively. The rate of Ac-CoA hydrolysis was measured over a three-minute time period. The reaction was stopped with 25 µL Ellman's reagent in 6.4 M guanidine and the absorbance was measured at a wavelength of 405 nm. The residual activity was measured as a percentage of a control prepared as described in Figure S1 and plotted against the incubation-time. The data were fitted using the Semilog line (X is linear, Y is Log) module of GraphPad Prism 5.0. The slope of each line is equivalent to (−kobs/2.303) at each inhibitor concentration.The controls in which no enzyme was present using CoA and Ellman's reagent gave the same results whether compound 1 was present or not.

For assay [4], the target named is T2, MMNAT. In words: ESI-MS analysis of covalent enzyme-inhibitor adducts. It counts as binding, M. marinum. The settings on record: enzyme-to-inhibitor ratio 1∶1. The method, then: ESI-MS was performed as described previously. A sample of 2.5 mg/mL (80 µM) MMNAT was analyzed on a Micromass LCT mass spectrometer. The samples were pretreated with DMSO or 0.08–1.2 mM inhibitor dissolved in DMSO to a final percentage of 5% (v/v) DMSO and incubated for 30–60 min before analysis. ESI-MS analysis was performed in positive ion mode after denaturation in 50% v/v acetonitrile in water with an accuracy of ±0.1%. The sample was run over a desalting column prior to MS analysis.

Where “and” joins values, the source holds several entries; their conditions need not be identical. Identical values can stand only once.

T2 sequence (B2HIZ6 entry or part of it): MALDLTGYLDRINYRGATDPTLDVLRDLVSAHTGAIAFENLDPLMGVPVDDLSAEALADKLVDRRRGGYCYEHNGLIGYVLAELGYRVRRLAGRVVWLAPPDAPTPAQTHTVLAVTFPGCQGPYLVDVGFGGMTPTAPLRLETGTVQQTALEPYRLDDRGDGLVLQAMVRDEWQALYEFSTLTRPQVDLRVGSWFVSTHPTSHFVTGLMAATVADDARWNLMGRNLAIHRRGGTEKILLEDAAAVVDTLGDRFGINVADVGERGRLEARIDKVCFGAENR
T1 sequence (P9WJI5 whole entry): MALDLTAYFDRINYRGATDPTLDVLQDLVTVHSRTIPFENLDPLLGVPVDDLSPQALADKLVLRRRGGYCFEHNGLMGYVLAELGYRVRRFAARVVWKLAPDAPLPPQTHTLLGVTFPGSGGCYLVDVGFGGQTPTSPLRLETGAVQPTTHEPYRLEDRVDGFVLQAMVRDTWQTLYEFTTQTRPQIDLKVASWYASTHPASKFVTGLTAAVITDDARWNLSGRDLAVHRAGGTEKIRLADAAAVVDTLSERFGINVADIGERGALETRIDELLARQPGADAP

As a reminder, the inhibition is the relative decrease from the control value, in per cent. Usually IC50 stands for the point on the concentration scale where inhibition reaches its midpoint. With `CN1CCC(O)(c2ccccc2)C(C(=O)c2ccccc2)C1` (stereo not drawn) [compound 1, (4-hydroxy-1-methyl-4-phenylpiperidin-3-yl)(phenyl)methanone], in assay [1] (50 µM inhibitor, mean ± S.D. of triplicate, read-out: TBNAT % Inhibition), the inhibition at 50 µM turned out to be 101 ± 1%. Also, the IC50 in assay [1] (mean ± S.D.) turned out to be 7.7 ± 0.9 µM. The “restoration of enzyme activity by dialysis (MMNAT)” value in assay [2] was “completely ineffective in restoring the activity”. For the same molecule, the MMNAT kobs in assay [3] was 9±2 10^−3 min^−1. Besides, the “Δm of enzyme-inhibitor adduct (MMNAT)” value in assay [4] (24°C, 30–60 min) is 132 Da and 132.6 Da. In addition, the “Molar ratio (inhibitor/protein) (MMNAT)” value in assay [4] (proposed number of inhibition species bound per protein molecule) amounted to 1.
